Legend:
Assay type in all cases: functional
Sporothrix schenckii [1] = test: Antifungal activity against Sporothrix schenckii P24223 isolate from cutaneous-lymphatic sporotrichosis patient after 72 hrs by Sensititre YeastOne method
Sporothrix schenckii [2] = test: Antifungal activity against Sporothrix schenckii PGAC0016 isolate from cutaneous-lymphatic sporotrichosis patient after 72 hrs by Sensititre YeastOne method
Sporothrix schenckii [3] = test: Antifungal activity against Sporothrix schenckii PJRC002 isolate from cutaneous-lymphatic sporotrichosis patient after 72 hrs by modified NCCLS M38-A method
Sporothrix schenckii [4] = test: Antifungal activity against Sporothrix schenckii P30915 isolate from cutaneous-lymphatic sporotrichosis patient after 72 hrs by modified NCCLS M38-A method
Pichia kudriavzevii [5] = test: Antifungal activity against Candida krusei ATCC 6258 […] after 72 hrs by modified NCCLS M38-A method; settings: ATCC 6258, 72 h
Sporothrix schenckii [6] = test: Antifungal activity against Sporothrix schenckii P10012 isolate from cutaneous-lymphatic sporotrichosis patient after 72 hrs by Sensititre YeastOne method
Sporothrix schenckii [7] = test: Antifungal activity against Sporothrix schenckii P0019 isolate from cutaneous-lymphatic sporotrichosis patient after 72 hrs by Sensititre YeastOne method
Sporothrix schenckii [8] = test: Antifungal activity against Sporothrix schenckii P24223 isolate from cutaneous-lymphatic sporotrichosis patient after 72 hrs by modified NCCLS M38-A method
Aspergillus flavus [9] = test: Antifungal activity against Aspergillus flavus ATCC 204304 […] after 72 hrs by Sensititre YeastOne method; settings: ATCC 204304, 72 h
Sporothrix schenckii [10] = test: Antifungal activity against Sporothrix schenckii P1621 isolate from cutaneous-lymphatic sporotrichosis patient after 72 hrs by modified NCCLS M38-A method
Sporothrix schenckii [11] = test: Antifungal activity against Sporothrix schenckii PJRC002 isolate from cutaneous-lymphatic sporotrichosis patient after 72 hrs by Sensititre YeastOne method
Sporothrix schenckii [12] = test: Antifungal activity against Sporothrix schenckii P3287 isolate from cutaneous-lymphatic sporotrichosis patient after 72 hrs by Sensititre YeastOne method
Sporothrix schenckii [13] = test: Antifungal activity against Sporothrix schenckii PSSA81 isolate from cutaneous-lymphatic sporotrichosis patient after 72 hrs by modified NCCLS M38-A method
Sporothrix schenckii [14] = test: Antifungal activity against Sporothrix schenckii PSCC1 isolate from cutaneous-lymphatic sporotrichosis patient after 72 hrs by Sensititre YeastOne method
Sporothrix schenckii [15] = test: Antifungal activity against Sporothrix schenckii P24255 isolate from cutaneous-lymphatic sporotrichosis patient after 72 hrs by Sensititre YeastOne method
Sporothrix schenckii [16] = test: Antifungal activity against Sporothrix schenckii P25013 isolate from cutaneous-lymphatic sporotrichosis patient after 72 hrs by modified NCCLS M38-A method
Sporothrix schenckii [17] = test: Antifungal activity against Sporothrix schenckii PSSA81 isolate from cutaneous-lymphatic sporotrichosis patient after 72 hrs by Sensititre YeastOne method
Sporothrix schenckii [18] = test: Antifungal activity against Sporothrix schenckii P20825 isolate from cutaneous-lymphatic sporotrichosis patient after 72 hrs by Sensititre YeastOne method
Candida parapsilosis [19] = test: Antifungal activity against Candida parapsilosis ATCC 22019 […] after 72 hrs by modified NCCLS M38-A method; settings: Lodderomyces parapsilosis, ATCC 22019, 72 h
Sporothrix schenckii [20] = test: Antifungal activity against Sporothrix schenckii MRSS4 isolate from cutaneous-lymphatic sporotrichosis patient after 72 hrs by modified NCCLS M38-A method
Sporothrix schenckii [21] = test: Antifungal activity against Sporothrix schenckii P3287 isolate from cutaneous-lymphatic sporotrichosis patient after 72 hrs by modified NCCLS M38-A method
Candida parapsilosis [22] = test: Antifungal activity against Candida parapsilosis ATCC 22019 […] after 72 hrs by Sensititre YeastOne method; settings: Lodderomyces parapsilosis, ATCC 22019, 72 h
Sporothrix schenckii [23] = test: Antifungal activity against Sporothrix schenckii P14036 isolate from cutaneous-lymphatic sporotrichosis patient after 72 hrs by modified NCCLS M38-A method
Sporothrix schenckii [24] = test: Antifungal activity against Sporothrix schenckii P24255 isolate from cutaneous-lymphatic sporotrichosis patient after 72 hrs by modified NCCLS M38-A method
Sporothrix schenckii [25] = test: Antifungal activity against Sporothrix schenckii P25013 isolate from cutaneous-lymphatic sporotrichosis patient after 72 hrs by Sensititre YeastOne method
Sporothrix schenckii [26] = test: Antifungal activity against Sporothrix schenckii P26187 isolate from cutaneous-lymphatic sporotrichosis patient after 72 hrs by Sensititre YeastOne method
Sporothrix schenckii [27] = test: Antifungal activity against Sporothrix schenckii SSA29 isolate from cutaneous-lymphatic sporotrichosis patient after 72 hrs by Sensititre YeastOne method
Sporothrix schenckii [28] = test: Antifungal activity against Sporothrix schenckii SSA29 isolate from cutaneous-lymphatic sporotrichosis patient after 72 hrs by modified NCCLS M38-A method
Sporothrix schenckii [29] = test: Antifungal activity against Sporothrix schenckii isolate from cutaneous-lymphatic sporotrichosis patient after 72 hrs by modified NCCLS M38-A method
Sporothrix schenckii [30] = test: Antifungal activity against Sporothrix schenckii P14036 isolate from cutaneous-lymphatic sporotrichosis patient after 72 hrs by Sensititre YeastOne method
Sporothrix schenckii [31] = test: Antifungal activity against Sporothrix schenckii P10012 isolate from cutaneous-lymphatic sporotrichosis patient after 72 hrs by modified NCCLS M38-A method
Sporothrix schenckii [32] = test: Antifungal activity against Sporothrix schenckii P26187 isolate from cutaneous-lymphatic sporotrichosis patient after 72 hrs by modified NCCLS M38-A method
Sporothrix schenckii [33] = test: Antifungal activity against Sporothrix schenckii P14954 isolate from cutaneous-lymphatic sporotrichosis patient after 72 hrs by Sensititre YeastOne method
Sporothrix schenckii [34] = test: Antifungal activity against Sporothrix schenckii MRSS4 isolate from cutaneous-lymphatic sporotrichosis patient after 72 hrs by Sensititre YeastOne method
Sporothrix schenckii [35] = test: Antifungal activity against Sporothrix schenckii P30019 isolate from cutaneous-lymphatic sporotrichosis patient after 72 hrs by Sensititre YeastOne method
Sporothrix schenckii [36] = test: Antifungal activity against Sporothrix schenckii isolate from cutaneous-lymphatic sporotrichosis patient after 72 hrs by Sensititre YeastOne method
Aspergillus flavus [37] = test: Antifungal activity against Aspergillus flavus ATCC 204304 […] after 72 hrs by modified NCCLS M38-A method; settings: ATCC 204304, 72 h
Sporothrix schenckii [38] = test: Antifungal activity against Sporothrix schenckii P0019 isolate from cutaneous-lymphatic sporotrichosis patient after 72 hrs by modified NCCLS M38-A method
Pichia kudriavzevii [39] = test: Antifungal activity against Candida krusei ATCC 6258 […] after 72 hrs by Sensititre YeastOne method; settings: ATCC 6258, 72 h
Sporothrix schenckii [40] = test: Antifungal activity against Sporothrix schenckii P30019 isolate from cutaneous-lymphatic sporotrichosis patient after 72 hrs by modified NCCLS M38-A method
Sporothrix schenckii [41] = test: Antifungal activity against Sporothrix schenckii PSCC1 isolate from cutaneous-lymphatic sporotrichosis patient after 72 hrs by modified NCCLS M38-A method
Sporothrix schenckii [42] = test: Antifungal activity against Sporothrix schenckii P30915 isolate from cutaneous-lymphatic sporotrichosis patient after 72 hrs by Sensititre YeastOne method
Sporothrix schenckii [43] = test: Antifungal activity against Sporothrix schenckii P1621 isolate from cutaneous-lymphatic sporotrichosis patient after 72 hrs by Sensititre YeastOne method
Sporothrix schenckii [44] = test: Antifungal activity against Sporothrix schenckii PGAC0016 isolate from cutaneous-lymphatic sporotrichosis patient after 72 hrs by modified NCCLS M38-A method
Sporothrix schenckii [45] = test: Antifungal activity against Sporothrix schenckii P20825 isolate from cutaneous-lymphatic sporotrichosis patient after 72 hrs by modified NCCLS M38-A method
Sporothrix schenckii [46] = test: Antifungal activity against Sporothrix schenckii P14954 isolate from cutaneous-lymphatic sporotrichosis patient after 72 hrs by modified NCCLS M38-A method

C[C@@H](c1ncncc1F)[C@](O)(Cn1cncn1)c1ccc(F)cc1F [VORICONAZOLE]
16 µg/mL: MIC (Sporothrix schenckii [4]) | MIC (Sporothrix schenckii [10]) | MIC (Sporothrix schenckii [21]) | MIC90 (Sporothrix schenckii [29]) | MIC (Sporothrix schenckii [31]) | MIC (Sporothrix schenckii [38]) | MIC (Sporothrix schenckii [44]) | MIC (Sporothrix schenckii [46])
4 µg/mL: MIC (Sporothrix schenckii [2]) | MIC (Sporothrix schenckii [3]) | MIC (Sporothrix schenckii [15]) | MIC (Sporothrix schenckii [26]) | MIC (Sporothrix schenckii [27]) | MIC (Sporothrix schenckii [40]) | MIC (Sporothrix schenckii [41]) | MIC (Sporothrix schenckii [42])
0.5 µg/mL: MIC (Sporothrix schenckii [6]) | MIC (Sporothrix schenckii [7]) | MIC (Sporothrix schenckii [17]) | MIC (Sporothrix schenckii [18]) | MIC (Sporothrix schenckii [25]) | MIC (Sporothrix schenckii [30]) | MIC (Aspergillus flavus [37])
2 µg/mL: MIC (Sporothrix schenckii [11]) | MIC (Sporothrix schenckii [14]) | MIC (Sporothrix schenckii [34]) | MIC50 (Sporothrix schenckii [36]) | MIC (Sporothrix schenckii [43])
1 µg/mL: MIC (Sporothrix schenckii [35]) | MIC (Pichia kudriavzevii [39])
0.06 µg/mL: MIC (Candida parapsilosis [22])
0.03 µg/mL: MIC (Candida parapsilosis [19])
8 µg/mL: MIC (Sporothrix schenckii [1]) | MIC (Sporothrix schenckii [8]) | MIC (Sporothrix schenckii [12]) | MIC (Sporothrix schenckii [13]) | MIC (Sporothrix schenckii [16]) | MIC (Sporothrix schenckii [20]) | MIC (Sporothrix schenckii [23]) | MIC (Sporothrix schenckii [24]) | MIC (Sporothrix schenckii [28]) | MIC50 (Sporothrix schenckii [29]) | MIC (Sporothrix schenckii [32]) | MIC (Sporothrix schenckii [33]) | MIC90 (Sporothrix schenckii [36]) | MIC (Sporothrix schenckii [45])
0.12 µg/mL: MIC (Pichia kudriavzevii [5])
0.25 µg/mL: MIC (Aspergillus flavus [9])
